Measurements: US9492471B2, “Methods of treating a disease or disorder associated with Bruton'S Tyrosine Kinase” (Celgene Avilomics Research, Inc., priority 2013, dated 2016)
Like-named read-outs stand apart in the source and are kept apart here.

Assays:
Test in all cases: HotSpot kinase profiling
Assay type in all cases: biochemical
[1] = target: T1, ALK5/TGFBR1 (Homo sapiens, UniProt P36897)
T1 construct: purchased Reaction Biology Corp
T1 sequence (P36897 34-503): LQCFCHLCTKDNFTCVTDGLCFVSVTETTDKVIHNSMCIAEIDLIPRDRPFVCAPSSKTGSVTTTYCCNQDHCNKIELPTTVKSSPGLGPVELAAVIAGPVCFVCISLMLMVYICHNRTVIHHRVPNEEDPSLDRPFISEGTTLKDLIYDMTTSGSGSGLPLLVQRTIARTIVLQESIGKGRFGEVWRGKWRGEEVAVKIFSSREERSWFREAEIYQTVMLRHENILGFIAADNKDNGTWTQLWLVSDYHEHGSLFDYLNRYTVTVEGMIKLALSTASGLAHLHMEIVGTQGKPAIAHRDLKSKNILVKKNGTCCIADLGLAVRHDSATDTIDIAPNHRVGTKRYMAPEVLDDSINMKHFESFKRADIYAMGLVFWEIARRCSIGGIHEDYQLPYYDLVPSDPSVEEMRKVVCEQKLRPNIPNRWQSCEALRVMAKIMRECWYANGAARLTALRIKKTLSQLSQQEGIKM
Summary of the method: (§1)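 Percent inhibition, averaged when run more than once and referenced to a DMSO negative control, came from a radioactive filter-binding readout on P81 paper. Reactions of kinase with freshly made substrate and cofactors ran for 2 h at room temperature.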

[2] = target: T2, EPHA4 (Homo sapiens, UniProt P54764)
T2 construct: purchased Reaction Biology Corp
Summary of the method: as §1

[3] = target: T3, FES/FPS (Homo sapiens, UniProt P07332)
T3 construct: purchased Reaction Biology Corp
Summary of the method: as §1

[4] = target: T4, LATS1 (Homo sapiens, UniProt O95835)
T4 construct: purchased Reaction Biology Corp
T4 sequence (O95835 1-1130): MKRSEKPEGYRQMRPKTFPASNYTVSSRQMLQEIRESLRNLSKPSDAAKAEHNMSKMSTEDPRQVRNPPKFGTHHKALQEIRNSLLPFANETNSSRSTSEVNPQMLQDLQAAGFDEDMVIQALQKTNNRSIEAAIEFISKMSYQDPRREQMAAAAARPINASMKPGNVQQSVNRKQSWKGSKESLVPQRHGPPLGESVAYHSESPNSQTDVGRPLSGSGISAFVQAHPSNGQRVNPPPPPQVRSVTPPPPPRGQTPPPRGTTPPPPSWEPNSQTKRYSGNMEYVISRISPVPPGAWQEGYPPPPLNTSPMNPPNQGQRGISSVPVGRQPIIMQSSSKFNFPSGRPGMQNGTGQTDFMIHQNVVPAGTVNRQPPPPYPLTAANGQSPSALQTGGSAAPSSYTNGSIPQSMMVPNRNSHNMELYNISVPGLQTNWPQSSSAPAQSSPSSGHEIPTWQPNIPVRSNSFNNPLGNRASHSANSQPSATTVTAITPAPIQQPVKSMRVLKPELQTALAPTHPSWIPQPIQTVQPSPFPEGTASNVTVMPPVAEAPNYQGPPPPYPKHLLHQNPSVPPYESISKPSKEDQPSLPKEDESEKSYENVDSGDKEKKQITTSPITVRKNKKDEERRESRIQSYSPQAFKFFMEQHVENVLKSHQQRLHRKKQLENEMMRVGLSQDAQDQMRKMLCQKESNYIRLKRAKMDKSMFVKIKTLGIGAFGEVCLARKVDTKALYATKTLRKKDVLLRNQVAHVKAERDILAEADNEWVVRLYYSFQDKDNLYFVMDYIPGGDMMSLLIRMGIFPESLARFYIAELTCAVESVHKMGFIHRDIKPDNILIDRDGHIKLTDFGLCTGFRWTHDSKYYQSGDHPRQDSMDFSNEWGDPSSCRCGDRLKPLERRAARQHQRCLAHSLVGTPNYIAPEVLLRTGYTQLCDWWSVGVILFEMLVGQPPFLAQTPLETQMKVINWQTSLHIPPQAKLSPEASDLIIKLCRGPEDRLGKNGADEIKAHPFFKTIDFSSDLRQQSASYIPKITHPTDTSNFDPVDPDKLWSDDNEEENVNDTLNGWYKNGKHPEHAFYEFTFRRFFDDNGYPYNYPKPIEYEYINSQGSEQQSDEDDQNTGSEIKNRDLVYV
Summary of the method: as §1

[5] = target: T5, PAK3 (Homo sapiens, UniProt O75914)
T5 construct: purchased Reaction Biology Corp
Summary of the method: as §1

[6] = target: T6, PDGFRb (Homo sapiens, UniProt P09619)
T6 construct: purchased Reaction Biology Corp
Summary of the method: as §1

[7] = target: T7, VRK1 (Homo sapiens, UniProt Q99986)
T7 construct: purchased Reaction Biology Corp
T7 sequence (Q99986 1-396): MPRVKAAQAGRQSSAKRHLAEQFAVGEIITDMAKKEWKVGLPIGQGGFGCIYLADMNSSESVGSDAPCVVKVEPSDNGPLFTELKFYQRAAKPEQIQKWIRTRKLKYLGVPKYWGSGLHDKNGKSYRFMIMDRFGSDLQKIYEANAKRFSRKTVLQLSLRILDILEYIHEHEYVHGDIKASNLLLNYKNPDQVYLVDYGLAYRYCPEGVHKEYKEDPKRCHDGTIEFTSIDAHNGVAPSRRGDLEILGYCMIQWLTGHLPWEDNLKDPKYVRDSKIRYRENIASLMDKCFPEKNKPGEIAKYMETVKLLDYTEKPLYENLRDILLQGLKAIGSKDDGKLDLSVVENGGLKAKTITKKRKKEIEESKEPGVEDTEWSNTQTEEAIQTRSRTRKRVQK
Summary of the method: as §1

[8] = read-out: % Enzyme Activity (relative to DMSO controls) Run 1
[9] = read-out: % Enzyme Activity (relative to DMSO controls) Run 2

T3 sequence (P07332 whole entry): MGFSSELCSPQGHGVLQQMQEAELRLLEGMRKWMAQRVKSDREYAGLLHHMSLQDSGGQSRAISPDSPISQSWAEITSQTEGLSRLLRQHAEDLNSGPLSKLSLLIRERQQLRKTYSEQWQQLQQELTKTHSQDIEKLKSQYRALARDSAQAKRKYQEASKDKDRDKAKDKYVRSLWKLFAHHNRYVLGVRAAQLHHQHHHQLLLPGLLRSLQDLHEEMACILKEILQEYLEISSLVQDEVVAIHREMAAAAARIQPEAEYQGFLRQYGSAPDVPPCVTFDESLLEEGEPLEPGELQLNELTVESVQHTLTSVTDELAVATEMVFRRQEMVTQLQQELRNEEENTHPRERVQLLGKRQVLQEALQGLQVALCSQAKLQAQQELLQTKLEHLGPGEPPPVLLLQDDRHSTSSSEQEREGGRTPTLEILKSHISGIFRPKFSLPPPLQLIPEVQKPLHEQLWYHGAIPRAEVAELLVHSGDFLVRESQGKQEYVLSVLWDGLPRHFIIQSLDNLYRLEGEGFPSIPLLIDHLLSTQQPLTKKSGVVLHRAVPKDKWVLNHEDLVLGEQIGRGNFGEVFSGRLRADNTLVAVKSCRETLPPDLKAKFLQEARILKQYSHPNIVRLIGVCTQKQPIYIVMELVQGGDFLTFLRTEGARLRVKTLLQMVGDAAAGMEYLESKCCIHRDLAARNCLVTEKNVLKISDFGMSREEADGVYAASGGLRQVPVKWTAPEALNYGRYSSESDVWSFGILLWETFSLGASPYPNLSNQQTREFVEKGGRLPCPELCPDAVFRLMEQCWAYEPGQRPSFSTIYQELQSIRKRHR
T2 sequence (P54764 20-986): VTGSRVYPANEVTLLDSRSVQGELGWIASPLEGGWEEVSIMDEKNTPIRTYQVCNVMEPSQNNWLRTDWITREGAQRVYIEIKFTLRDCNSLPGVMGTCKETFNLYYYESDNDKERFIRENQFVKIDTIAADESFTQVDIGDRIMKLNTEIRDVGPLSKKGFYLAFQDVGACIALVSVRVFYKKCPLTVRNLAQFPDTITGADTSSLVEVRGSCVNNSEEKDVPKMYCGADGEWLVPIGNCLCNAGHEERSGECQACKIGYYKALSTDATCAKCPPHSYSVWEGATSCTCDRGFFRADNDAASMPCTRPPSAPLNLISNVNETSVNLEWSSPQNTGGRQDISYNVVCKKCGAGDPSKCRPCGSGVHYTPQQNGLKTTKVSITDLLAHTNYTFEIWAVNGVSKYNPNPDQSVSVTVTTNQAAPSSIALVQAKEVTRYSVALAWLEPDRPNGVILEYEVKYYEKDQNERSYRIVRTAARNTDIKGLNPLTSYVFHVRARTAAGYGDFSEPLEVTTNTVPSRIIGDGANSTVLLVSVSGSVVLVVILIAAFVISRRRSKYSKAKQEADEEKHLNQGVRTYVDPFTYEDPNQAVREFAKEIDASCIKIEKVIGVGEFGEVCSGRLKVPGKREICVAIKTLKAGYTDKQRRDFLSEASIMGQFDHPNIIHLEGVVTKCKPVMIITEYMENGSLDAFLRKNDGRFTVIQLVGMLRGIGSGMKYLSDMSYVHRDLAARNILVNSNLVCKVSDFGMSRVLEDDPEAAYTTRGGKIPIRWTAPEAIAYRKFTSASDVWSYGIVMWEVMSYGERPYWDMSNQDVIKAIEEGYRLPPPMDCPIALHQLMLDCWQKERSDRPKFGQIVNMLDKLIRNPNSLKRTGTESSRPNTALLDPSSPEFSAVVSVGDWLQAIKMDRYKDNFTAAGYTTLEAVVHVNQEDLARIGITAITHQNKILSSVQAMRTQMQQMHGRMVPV
T6 sequence (P09619 33-1106): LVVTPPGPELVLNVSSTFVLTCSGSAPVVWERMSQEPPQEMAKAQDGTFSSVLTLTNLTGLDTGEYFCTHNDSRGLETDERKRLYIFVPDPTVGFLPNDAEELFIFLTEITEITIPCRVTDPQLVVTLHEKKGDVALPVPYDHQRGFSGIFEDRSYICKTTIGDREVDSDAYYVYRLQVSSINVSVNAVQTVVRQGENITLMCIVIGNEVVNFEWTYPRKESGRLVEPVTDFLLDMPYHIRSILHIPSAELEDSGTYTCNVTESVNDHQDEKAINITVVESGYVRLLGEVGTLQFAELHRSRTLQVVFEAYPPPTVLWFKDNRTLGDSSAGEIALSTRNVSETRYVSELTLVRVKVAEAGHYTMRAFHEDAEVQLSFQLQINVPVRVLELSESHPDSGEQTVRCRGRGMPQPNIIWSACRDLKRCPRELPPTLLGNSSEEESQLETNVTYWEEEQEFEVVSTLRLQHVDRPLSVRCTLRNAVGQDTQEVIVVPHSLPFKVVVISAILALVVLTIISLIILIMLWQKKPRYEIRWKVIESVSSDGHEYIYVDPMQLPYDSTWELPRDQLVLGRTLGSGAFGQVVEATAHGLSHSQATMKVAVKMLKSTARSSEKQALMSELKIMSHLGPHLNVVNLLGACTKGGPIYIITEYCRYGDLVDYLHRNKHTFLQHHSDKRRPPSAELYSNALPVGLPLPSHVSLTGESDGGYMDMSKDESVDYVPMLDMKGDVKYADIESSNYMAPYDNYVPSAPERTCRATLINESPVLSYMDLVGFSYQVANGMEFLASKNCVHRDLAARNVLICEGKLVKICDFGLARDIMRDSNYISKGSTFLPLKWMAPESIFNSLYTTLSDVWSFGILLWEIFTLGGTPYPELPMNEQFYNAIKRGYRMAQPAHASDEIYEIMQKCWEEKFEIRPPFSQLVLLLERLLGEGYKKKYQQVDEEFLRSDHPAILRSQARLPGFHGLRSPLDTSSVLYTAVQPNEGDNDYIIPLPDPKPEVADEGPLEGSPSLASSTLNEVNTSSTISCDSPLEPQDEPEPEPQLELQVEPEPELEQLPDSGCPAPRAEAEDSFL
T5 sequence (O75914 whole entry): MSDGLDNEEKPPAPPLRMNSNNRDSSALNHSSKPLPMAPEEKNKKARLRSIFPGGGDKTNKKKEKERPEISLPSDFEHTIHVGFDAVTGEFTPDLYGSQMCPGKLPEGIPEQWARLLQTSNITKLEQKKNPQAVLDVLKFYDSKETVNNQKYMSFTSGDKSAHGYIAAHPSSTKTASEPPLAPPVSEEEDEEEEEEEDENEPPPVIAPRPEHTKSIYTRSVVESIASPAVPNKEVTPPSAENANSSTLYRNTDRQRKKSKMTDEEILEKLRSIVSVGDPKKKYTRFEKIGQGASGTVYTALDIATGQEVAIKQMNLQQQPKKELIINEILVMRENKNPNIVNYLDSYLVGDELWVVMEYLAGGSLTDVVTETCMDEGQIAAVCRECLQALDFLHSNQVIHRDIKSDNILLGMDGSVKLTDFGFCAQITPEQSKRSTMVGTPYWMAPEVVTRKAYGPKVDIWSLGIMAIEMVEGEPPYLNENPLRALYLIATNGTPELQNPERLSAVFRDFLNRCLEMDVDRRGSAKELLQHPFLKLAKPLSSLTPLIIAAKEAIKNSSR

C=CC(=O)Nc1cccc(Nc2nc(Nc3ccc(OCCOC)c(F)c3)ncc2F)c1 [Compound 2]
inhibition at 3 µM [1]: -8.03%
remaining activity at 3 µM [1, 8]: 106%
remaining activity at 3 µM [1, 9]: 110%
inhibition at 3 µM [2]: 9.09%
remaining activity at 3 µM [2, 8]: 92.9%
remaining activity at 3 µM [2, 9]: 89%
inhibition at 3 µM [3]: 35%
remaining activity at 3 µM [3, 8]: 64%
remaining activity at 3 µM [3, 9]: 66%
inhibition at 3 µM [4]: 10.3%
remaining activity at 3 µM [4, 8]: 89.5%
remaining activity at 3 µM [4, 9]: 89.8%
inhibition at 3 µM [5]: 6.46%
remaining activity at 3 µM [5, 8]: 91.9%
remaining activity at 3 µM [5, 9]: 95.2%
inhibition at 3 µM [6]: 52.4%
remaining activity at 3 µM [6, 8]: 47.7%
remaining activity at 3 µM [6, 9]: 47.4%
inhibition at 3 µM [7]: 12.9%
remaining activity at 3 µM [7, 8]: 84.3%
remaining activity at 3 µM [7, 9]: 89.9%
